Here are results for one compound from patent US20050043247A1, “Spray-dried amorphous BIBN 4096, process for preparing and the use thereof as inhalative” (Boehringer Ingelheim International GmbH, priority 2003, published 2005).

A short description of series [1]: Determining the specific surface area (multi point BET, nitrogen). In kind it is physicochemical. Particulars: spray-dried microparticles from ethanol solution; 16 point BET. The protocol:
b) Determining the Specific Surface Area:
Measuring method: The specific surface is determined by exposing the powder sample to a nitrogen atmosphere at different pressures. Cooling the sample causes the nitrogen molecules to be condensed on the surface of the particles. The quantity of condensed nitrogen is determined by means of the drop in pressure in the system and the surface of the sample is calculated by means of the surface nitrogen requirement and the weight of the sample.
Measuring device: Tri Star Multi Point BET, Messrs. Micromeritics
Heating station: VacPrep 061, Messrs. Micromeritics
Heating: approx. 12 h /40° C.

A short description of series [2]: Determining the particle size by laser diffraction (Frauenhofer diffraction). The format is physicochemical. An excerpt: a) Determining the Particle Size by Laser Diffraction (Frauenhofer Diffraction):
Measuring method: In order to determine the particle size the powder is fed into a laser diffraction spectrometer using a dispersing unit. The median value X50 refers to the particle size below which 50% of the quantity of particles fall. The Q(5.8) value describes the percentage of particles which are less than 5.8 μm in size.
Measuring device: Laser diffraction spectrometer (HELOS), Messrs. Sympatec
Dispersing unit: RODOS/dispersing pressure: 3 bar
Focal length: 100 mm [measuring range: 0.9 . . . 175 μm]
Evaluation method: HRLD (V 4)

For series [3] the following is noted: conventional formulations; cited from earlier work.
Series [4] can be described thus: Stability of the amorphous state. The format is physicochemical. The settings on record: normal conditions (T<50° C., relative humidity<75%); microparticles.
Series [5] can be described thus: Bioavailability after administration by inhalation as powder inhalant. Particulars: in vivo, inhaled or intranasal; administered by inhalation as powder inhalant; based on the fine content of the formulation (FPD, fine particle dose, USP 24 Suppl. 2000).

As to `NCCCC[C@H](NC(=O)[C@@H](Cc1cc(Br)c(O)c(Br)c1)NC(=O)N1CCC(N2Cc3ccccc3NC2=O)CC1)C(=O)N1CCN(c2ccncc2)CC1` [A, 1-[N^2-[3,5-dibromo-N-[[4-(3,4-dihydro-2(1H)-oxoquinazolin-3-yl)-1-piperidinyl]carbonyl]-D-tyrosyl]-L-lysyl]-4-(4-pyridinyl)-piperazine], the “Specific surface area Sm” value in series [1] is reported as 21.5 m^2/g. The “Particle size X50” value in series [2] (spray-dried microparticles from 0.5 g (A) in 100 mL ethanol, median particle size, RODOS dispersing pressure 3 bar) is on record as 1.2 μm. Also, the “Particle size Q(5.8)” value in series [2] (spray-dried microparticles from ethanol solution, percentage of particles less than 5.8 μm in size) is reported as 99.5%. Besides, the oral bioavailability result in series [3] is reported as “very limited oral bioavailability”. In series [4], the “stability in the amorphous state” value is on record as “stable in the amorphous state”. For the same compound, in series [5], the bioavailability was around 60%.

The bioavailability is the share of a dose that reaches the circulation, judged against a reference dose that is usually intravenous. A high value points to much systemic uptake.
